Laboratory results as given in BigSolDB 2.1.

Compound NC(=O)c1ccccc1 has a solubility (mole fraction) (in acetone, 283.15 K) of 0.0508, a solubility (mole fraction) (in acetone, 288.15 K) of 0.0589 and a solubility (mole fraction) (in acetone, 293.15 K) of 0.0703. It also gave a solubility (mole fraction) (in acetone, 298.15 K) of 0.0817, a solubility (mole fraction) (in acetone, 303.15 K) of 0.0948 and a solubility (mole fraction) (in acetone, 308.15 K) of 0.107. The solubility (mole fraction) (in acetone, 313.15 K) was 0.126, the solubility (mole fraction) (in acetone, 318.15 K) was 0.149 and the solubility (mole fraction) (in acetone, 323.15 K) was 0.174. For the same compound, the solubility (mole fraction) (in acetonitrile, 283.15 K) was 0.0162, the solubility (mole fraction) (in acetonitrile, 288.15 K) was 0.0196 and the solubility (mole fraction) (in acetonitrile, 293.15 K) was 0.0231. The solubility (mole fraction) (in acetonitrile, 298.15 K) was 0.0278, the solubility (mole fraction) (in acetonitrile, 303.15 K) was 0.0331 and the solubility (mole fraction) (in acetonitrile, 308.15 K) was 0.0385. It also gave a solubility (mole fraction) (in acetonitrile, 313.15 K) of 0.046, a solubility (mole fraction) (in acetonitrile, 318.15 K) of 0.0564 and a solubility (mole fraction) (in acetonitrile, 323.15 K) of 0.0712. The solubility (mole fraction) (in ethanol, 283.15 K) was 0.0412, the solubility (mole fraction) (in ethanol, 288.15 K) was 0.0479 and the solubility (mole fraction) (in ethanol, 293.15 K) was 0.0555. The solubility (mole fraction) (in ethanol, 298.15 K) was 0.0648, the solubility (mole fraction) (in ethanol, 303.15 K) was 0.0758 and the solubility (mole fraction) (in ethanol, 308.15 K) was 0.087. For the same compound, the solubility (mole fraction) (in ethanol, 313.15 K) was 0.101, the solubility (mole fraction) (in ethanol, 318.15 K) was 0.12 and the solubility (mole fraction) (in ethanol, 323.15 K) was 0.143. It also gave a solubility (mole fraction) (in ethyl acetate, 283.15 K) of 0.0206, a solubility (mole fraction) (in ethyl acetate, 288.15 K) of 0.0234 and a solubility (mole fraction) (in ethyl acetate, 293.15 K) of 0.0279. The solubility (mole fraction) (in ethyl acetate, 298.15 K) was 0.0334, the solubility (mole fraction) (in ethyl acetate, 303.15 K) was 0.0392 and the solubility (mole fraction) (in ethyl acetate, 308.15 K) was 0.0455. For the same compound, the solubility (mole fraction) (in ethyl acetate, 313.15 K) was 0.0518, the solubility (mole fraction) (in ethyl acetate, 318.15 K) was 0.0613 and the solubility (mole fraction) (in ethyl acetate, 323.15 K) was 0.0719. For the same compound, the solubility (mole fraction) (in isobutanol, 283.15 K) was 0.0268, the solubility (mole fraction) (in isobutanol, 288.15 K) was 0.0289 and the solubility (mole fraction) (in isobutanol, 293.15 K) was 0.0342. For the same compound, the solubility (mole fraction) (in isobutanol, 298.15 K) was 0.0416, the solubility (mole fraction) (in isobutanol, 303.15 K) was 0.0489 and the solubility (mole fraction) (in isobutanol, 308.15 K) was 0.0569. The solubility (mole fraction) (in isobutanol, 313.15 K) was 0.0665, the solubility (mole fraction) (in isobutanol, 318.15 K) was 0.0786 and the solubility (mole fraction) (in isobutanol, 323.15 K) was 0.0945. It also gave a solubility (mole fraction) (in isopropanol, 283.15 K) of 0.0253, a solubility (mole fraction) (in isopropanol, 288.15 K) of 0.0314 and a solubility (mole fraction) (in isopropanol, 293.15 K) of 0.0387. The solubility (mole fraction) (in isopropanol, 298.15 K) was 0.0473, the solubility (mole fraction) (in isopropanol, 303.15 K) was 0.0558 and the solubility (mole fraction) (in isopropanol, 308.15 K) was 0.0642. For the same compound, the solubility (mole fraction) (in isopropanol, 313.15 K) was 0.0767, the solubility (mole fraction) (in isopropanol, 318.15 K) was 0.0893 and the solubility (mole fraction) (in isopropanol, 323.15 K) was 0.111. For the same compound, the solubility (mole fraction) (in methanol, 283.15 K) was 0.0599, the solubility (mole fraction) (in methanol, 288.15 K) was 0.0699 and the solubility (mole fraction) (in methanol, 293.15 K) was 0.0804. It also gave a solubility (mole fraction) (in methanol, 298.15 K) of 0.0917, a solubility (mole fraction) (in methanol, 303.15 K) of 0.105 and a solubility (mole fraction) (in methanol, 308.15 K) of 0.121. The solubility (mole fraction) (in methanol, 313.15 K) was 0.141, the solubility (mole fraction) (in methanol, 318.15 K) was 0.164 and the solubility (mole fraction) (in methanol, 323.15 K) was 0.189. For the same compound, the solubility (mole fraction) (in methyl acetate, 283.15 K) was 0.0236, the solubility (mole fraction) (in methyl acetate, 288.15 K) was 0.0277 and the solubility (mole fraction) (in methyl acetate, 293.15 K) was 0.0334. It also gave a solubility (mole fraction) (in methyl acetate, 298.15 K) of 0.0401, a solubility (mole fraction) (in methyl acetate, 303.15 K) of 0.0476 and a solubility (mole fraction) (in methyl acetate, 308.15 K) of 0.0567. The solubility (mole fraction) (in methyl acetate, 313.15 K) was 0.0662, the solubility (mole fraction) (in methyl acetate, 318.15 K) was 0.0769 and the solubility (mole fraction) (in methyl acetate, 323.15 K) was 0.0927. The solubility (mole fraction) (in n-butanol, 283.15 K) was 0.0308, the solubility (mole fraction) (in n-butanol, 288.15 K) was 0.036 and the solubility (mole fraction) (in n-butanol, 293.15 K) was 0.0425. The solubility (mole fraction) (in n-butanol, 298.15 K) was 0.0509, the solubility (mole fraction) (in n-butanol, 303.15 K) was 0.0591 and the solubility (mole fraction) (in n-butanol, 308.15 K) was 0.0682. For the same compound, the solubility (mole fraction) (in n-butanol, 313.15 K) was 0.0787, the solubility (mole fraction) (in n-butanol, 318.15 K) was 0.0933 and the solubility (mole fraction) (in n-butanol, 323.15 K) was 0.109. It also gave a solubility (mole fraction) (in n-butyl acetate, 283.15 K) of 0.0176, a solubility (mole fraction) (in n-butyl acetate, 288.15 K) of 0.0192 and a solubility (mole fraction) (in n-butyl acetate, 293.15 K) of 0.0224. It also gave a solubility (mole fraction) (in n-butyl acetate, 298.15 K) of 0.0264, a solubility (mole fraction) (in n-butyl acetate, 303.15 K) of 0.0304 and a solubility (mole fraction) (in n-butyl acetate, 308.15 K) of 0.0349. It also gave a solubility (mole fraction) (in n-butyl acetate, 313.15 K) of 0.0402, a solubility (mole fraction) (in n-butyl acetate, 318.15 K) of 0.0451 and a solubility (mole fraction) (in n-butyl acetate, 323.15 K) of 0.0525. It also gave a solubility (mole fraction) (in n-propanol, 283.15 K) of 0.0329, a solubility (mole fraction) (in n-propanol, 288.15 K) of 0.0398 and a solubility (mole fraction) (in n-propanol, 293.15 K) of 0.0479. It also gave a solubility (mole fraction) (in n-propanol, 298.15 K) of 0.0561, a solubility (mole fraction) (in n-propanol, 303.15 K) of 0.0653 and a solubility (mole fraction) (in n-propanol, 308.15 K) of 0.0753. It also gave a solubility (mole fraction) (in n-propanol, 313.15 K) of 0.0891, a solubility (mole fraction) (in n-propanol, 318.15 K) of 0.103 and a solubility (mole fraction) (in n-propanol, 323.15 K) of 0.126. The solubility (mole fraction) (in water, 283.15 K) was 0.00099, the solubility (mole fraction) (in water, 288.15 K) was 0.00128 and the solubility (mole fraction) (in water, 293.15 K) was 0.0017. The solubility (mole fraction) (in water, 298.15 K) was 0.00212, the solubility (mole fraction) (in water, 303.15 K) was 0.00261 and the solubility (mole fraction) (in water, 308.15 K) was 0.00306. It also gave a solubility (mole fraction) (in water, 313.15 K) of 0.00363, a solubility (mole fraction) (in water, 318.15 K) of 0.00438 and a solubility (mole fraction) (in water, 323.15 K) of 0.00538.
